From US20120010404A1, “OXAZINE DYES WITH IMPROVED AQUEOUS SOLUBILITY” (SIGMA-ALDRICH CO., priority 2008, published 2012)

Test: Fluorescence quenching with tryptophan (steady-state, Stern-Volmer)
Format: physicochemical
Settings: phosphate buffered solutions, pH = 8.0, 25° C.; in M-1 (unit assumed)
Description: FIG. 4 illustrates the fluorescence quenching by tryptophan. Shown is the fluorescence of Dye 3 in the absence and presence of various concentration of tryptophan (Trp) in phosphate buffer (pH 8) as a function of wavelength.
Steady-state fluorescence spectroscopy was performed for Dye 2, Dye 3, Dye 14, and Mr121 dye in presence of tryptophan at 25° C. in phosphate buffer.
For evaluating the quenching efficiency, the steady-state fluorescence quenching results were analyzed following the Stern-Volmer equation F0/F=1+KQ[Q], where Fo and F are the fluorescence intensities in the absence and presence of tryptophan and KQ is a static Stern-Volmer constant.

Row | Structure (SMILES) | Tryptophan Stern-Volmer static quenching constant, KQ
1 | CC1(C)CC(CS(=O)(=O)[O-])c2cc3c(cc2N1CCCS(=O)(=O)[O-])Oc1cc2c(cc1=N3)C(CS(=O)(=O)[O-])CC(C)(C)[N+]=2CCCC(=O)O.[Na+].[Na+] (stereo not drawn) [Dye 14, disodium (11-(3-carboxypropyl)-2,2,10,10-tetramethyl-1-(3-sulfonatopropyl)-2,3,4,8,9,10-hexahydro-1H-dipyrido[3,2-b:2′,3′-i]phenoxazine-11-ium-4,8-diyl)dimethanesulfonate] | 269 ± 22
2 | CC1CC(C)(C)N(CCCS(=O)(=O)O)c2cc3c(cc21)N=c1cc2c(cc1O3)=[N+](CCCC(=O)O)C(C)(C)CC2CS(=O)(=O)[O-] (stereo not drawn) [Dye 3, sodium 3-(11-(3-carboxypropyl)-2,2,4,10,10-pentamethyl-8-(sulfonatomethyl)-2,3,4,8,9,10-hexahydro-1H-dipyrido[3,2-b:2′,3′-i]phenoxazin-11-ium-1-yl)propane-1-sulfonate] | 320 ± 26
3 | CC1(C)CC(CS(=O)(=O)[O-])c2cc3c(cc2=[N+]1CCCC(=O)O)Oc1cc2c(cc1N=3)CCCN2CCCS(=O)(=O)O (stereo not drawn) [Dye 2, sodium 3-(11-(3-carboxypropyl)-10,10-dimethyl-8-(sulfonatomethyl)-2,3,4,8,9,10-hexahydro-1H-dipyrido[3,2-b:2′,3′-i]phenoxazin-11-ium-1-yl)propane-1-sulfonate] | 263 ± 24
